We go through 5 compounds from patent publication US12187713B2, “Immunomodulators, compositions and methods thereof” (Betta Pharmaceuticals Co., Ltd, priority 2019, dated 2025).

Data set [1] has as its system PD-1/PD-L1 interaction (Jurkat T cells expressing hPD-1 and PD-L1 aAPC/CHO-K1 cells expressing hPD-L1). The data set can be described thus: NFAT Assay (PD-1/PD-L1 Blockade Bioassay, luciferase reporter). In kind it is cell-based. To be noted: Homo sapiens; PD-1 effector Jurkat cells + PD-L1 aAPC/CHO-K1 cells, Bio-Glo luciferase. How it is done: PD-1/PD-L1 Blockade Bioassay contains two cells: PD-1 Effector Cells, which are the Jurkat T cells expressing hPD-1 and luciferase reporter genes; PD-L1 aAPC/CHO-K1 Cells, which are the CHO-K1 cells expressing hPD-L1 and activate TCR's cell surface proteins. The antibody or small molecule compound is incubated with these two cells for a period of time, and the amount of the product is detected using Bio-Glo Luciferase reagent and chemiluminescence method to reflect the influence of antibody or small molecule compound on PD-1/PD-L1 interaction.
Cell medium: 36 mL Ham's F-12; 4 mL FBS
1) Resuscitate PD-L1 aAPC/CHO-K1 Cells on the first day and the cells were suspended and counted with cell recovery medium. The cells were diluted to 2.65*10^5/ml with cell medium. Seed cells at density of 6000 cells/well of 384-wells plates, incubator for 16-24 h;
2) Dilute the compound to 5 mM with DMSO. The 5 mM solution was used as the first concentration, and a 3-fold gradient dilution was performed, with a total of 9 concentration gradients, and the 10th concentration was used as the DMSO control;
3) Positive control antibody Atezolizumab was diluted to 4 μg/ml with assay buffer. 4 μg/ml was used as the first concentration, and a 2.5-fold gradient dilution was performed, with a total of 9 concentration gradients, and the 10th concentration was used as the assay buffer control;
4) Aspirate the medium from the 384-well plate. Add 10 μL/well of compound to the 384-well plate and incubate for 2 hours;
5) Resuscitate PD-1 effector cells and the cells were suspended and counted with cell recovery medium. The cells were diluted to […] with cell medium. Seed cells at density of 8000 cells/well to 384-wells plates of step 4, incubator for 17 h;
6) Add 20 μL/well of Bio-Glo luciferase reagent to the 384 reaction plate of step 5, and incubate at 25° C. for 5-30 minutes.
7) Read the RLU (relative luminescence unit) value using the Envision multi-plate reader. The experimental data were plotted using compound concentration as X value and RLU as Y value.
For orientation: In a reporter assay the amount or activity of a reporter protein is the signal.

A short description of data set [2]: Pharmacokinetic Assay, single oral dose 5 mg/kg (Table 12). The class given is in vivo. Conditions: mouse, plasma concentration, C57 female mice, single oral dose 5 mg/kg. The procedure, abridged:
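Adult female C57 mice (n=3) got one intragastric dose of 5 mg/kg in 15% DMSO, 10% Kolliphor HS 15, 75% saline. Retro-orbital blood was taken at 30 min, 2 h and 4 h into K2-EDTA. Plasma levels were measured by LC-MS/MS.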

The target of data set [3] is PD-1/PD-L1 (Homo sapiens (Human), UniProt Q9NZQ7). The data set can be described thus: PD-1/PD-L1 Binding Assay (Alphascreen). To be noted: numeric values. The procedure, abridged:
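PD-1/PD-L1 binding detected by anti-6×His acceptor and streptavidin donor beads after 120 min in the dark at 25 °C. Beforehand, the two proteins were incubated 15 min at 25 °C with inhibitor at 0.015–300 nM (1% DMSO). IC50 comes from a log concentration–response curve.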
A general note: Bead proximity is the source of the signal in Alpha formats.

A short description of data set [4]: Pharmacokinetic Assay, single oral dose 100 mg/kg (Table 11). The class given is in vivo. To be noted: mouse, C57 female mice, oral (intragastric), plasma.

The structures appear in SMILES notation. pEC50, pIC50: −log10 of the molar value.

Sequence of PD-1/PD-L1 (Q9NZQ7 19-238): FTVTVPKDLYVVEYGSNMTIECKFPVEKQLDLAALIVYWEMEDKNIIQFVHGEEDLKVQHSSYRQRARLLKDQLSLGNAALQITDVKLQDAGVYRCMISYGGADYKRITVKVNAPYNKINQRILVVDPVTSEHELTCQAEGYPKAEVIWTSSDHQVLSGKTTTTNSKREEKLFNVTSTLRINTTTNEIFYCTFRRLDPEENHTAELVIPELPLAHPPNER

With `Cc1c(-c2nc3cc(CN4CCC[C@H]4C(=O)O)ccc3o2)cccc1-c1cccc(-c2nc3cc(CN4CC(C)(C)C4)cc(C#N)c3o2)c1C` [Example 318, ((2-(3′-(7-cyano-5-((3,3-dimethylazetidin-1-yl)methyl)benzo[d]oxazol-2-yl)-2,2′-dimethyl-[1,1′-biphenyl]-3-yl)benzo[d]oxazol-5-yl)methyl)-L-proline], the pEC50 (commonly −log10 of the EC50, conventionally taken in molar units) in data set [1] was 5.49.

Regarding `Cc1c(-c2nc3cc(CN4CCC[C@H]4C(=O)O)ccc3o2)cccc1-c1cccc(-c2nc3cc(CN4CCCC4)c(OC(F)F)cc3o2)c1C` [Example 317, ((2-(3′-(6-(difluoromethoxy)-5-(pyrrolidin-1-ylmethyl)benzo[d]oxazol-2-yl)-2,2′-dimethyl-[1,1′-biphenyl]-3-yl)benzo[d]oxazol-5-yl)methyl)-L-proline], the pEC50 in data set [1] was 5.33. In data set [2], the concentration at 0.5 h was 20.6 ng/mL, the concentration at 2 h stood at 88.5 ng/mL and the concentration at 4 h was 44.3 ng/mL.

On to `Cc1c(-c2nc3cc(CN4CC(C)(C)C4)c(OC(F)F)cc3o2)cccc1-c1cccc(-c2nc3cc(CN4CCC[C@H]4C(=O)O)c(OC(F)F)cc3o2)c1C` [Example 34, ((6-(difluoromethoxy)-2-(3′-(6-(difluoromethoxy)-5-((3,3-dimethylazetidin-1-yl)methyl)benzo[d]oxazol-2-yl)-2,2′-dimethyl-[1,1′-biphenyl]-3-yl)benzo[d]oxazol-5-yl)methyl)-L-proline], for which the pIC50 (as a rule, −log10 of the IC50, conventionally taken in molar units) in data set [3] is 8.89. In data set [2], this compound came in with a concentration at 0.5 h of 46.8 ng/mL, a concentration at 2 h of 136 ng/mL and a concentration at 4 h of 154 ng/mL. In data set [4], the AUC (commonly the area under the concentration-time curve, a measure of exposure) is 56100 ng·h/mL; the highest level (Cmax) was 4260 ng/mL; the Tmax – broadly, the time from dosing to the highest level – turned out to be 4 h; the half-life – broadly, how long it takes for the measured level to halve – was 6.99 h.

On to `Cc1c(-c2nc3cc(CN4CCCC4)c(OC(F)F)cc3o2)cccc1-c1cccc(-c2nc3cc(CN4CCC[C@H]4C(=O)O)c(OC(F)F)cc3o2)c1C` [Example 5, ((6-(difluoromethoxy)-2-(3′-(6-(difluoromethoxy)-5-(pyrrolidin-1-ylmethyl)benzo[d]oxazol-2-yl)-2,2′-dimethyl-[1,1′-biphenyl]-3-yl)benzo[d]oxazol-5-yl)methyl)-L-proline], for which, in data set [3], the pIC50 was 9.40. For the same compound, the negative-log EC50 (pEC50) in data set [1] was 6.50. In data set [2], this compound yielded a concentration at 0.5 h of 43.9 ng/mL, a concentration at 2 h of 55.7 ng/mL and a concentration at 4 h of 61.2 ng/mL. Besides, in data set [4], the AUC was 25700 ng·h/mL, the highest level (Cmax) was 2600 ng/mL, the Tmax is 4 h and the half-life is 5.07 h.

`Cc1c(-c2nc3cc(CN4CCC[C@H]4C(=O)O)c(OC(F)F)cc3o2)cccc1-c1cccc(-c2nc3cc(CN4CC(C)(C)C4)cc(C#N)c3o2)c1C` [Example 103, ((2-(3′-(7-cyano-5-((3,3-dimethylazetidin-1-yl)methyl)benzo[d]oxazol-2-yl)-2,2′-dimethyl-[1,1′-biphenyl]-3-yl)-6-(difluoromethoxy)benzo[d]oxazol-5-yl)methyl)-L-proline] had a pIC50 in data set [3] of 9.89. Moreover, in data set [1], the negative-log EC50 (pEC50) was 6.60. In addition, in data set [2], the concentration at 0.5 h was found to be 48.9 ng/mL, the concentration at 2 h was found to be 185 ng/mL and the concentration at 4 h was 135 ng/mL. Moreover, in data set [4], the AUC was 96400 ng·h/mL; the Cmax (in general, the peak of the concentration-time curve) is 5590 ng/mL; the Tmax is 4 h; the half-life was 23.4 h.
